Experimental data taken from publication PMC4112551 (Journal of biomolecular screening, 2012).

Biological target: rhGCPII (extracellular part of human GCPII, amino acids 44–750) (Homo sapiens, UniProt Q04609)
Assay: Fluorescence polarization
Format: binding

Sequence of rhGCPII (extracellular part of human GCPII, amino acids 44–750) (Q04609 44-750): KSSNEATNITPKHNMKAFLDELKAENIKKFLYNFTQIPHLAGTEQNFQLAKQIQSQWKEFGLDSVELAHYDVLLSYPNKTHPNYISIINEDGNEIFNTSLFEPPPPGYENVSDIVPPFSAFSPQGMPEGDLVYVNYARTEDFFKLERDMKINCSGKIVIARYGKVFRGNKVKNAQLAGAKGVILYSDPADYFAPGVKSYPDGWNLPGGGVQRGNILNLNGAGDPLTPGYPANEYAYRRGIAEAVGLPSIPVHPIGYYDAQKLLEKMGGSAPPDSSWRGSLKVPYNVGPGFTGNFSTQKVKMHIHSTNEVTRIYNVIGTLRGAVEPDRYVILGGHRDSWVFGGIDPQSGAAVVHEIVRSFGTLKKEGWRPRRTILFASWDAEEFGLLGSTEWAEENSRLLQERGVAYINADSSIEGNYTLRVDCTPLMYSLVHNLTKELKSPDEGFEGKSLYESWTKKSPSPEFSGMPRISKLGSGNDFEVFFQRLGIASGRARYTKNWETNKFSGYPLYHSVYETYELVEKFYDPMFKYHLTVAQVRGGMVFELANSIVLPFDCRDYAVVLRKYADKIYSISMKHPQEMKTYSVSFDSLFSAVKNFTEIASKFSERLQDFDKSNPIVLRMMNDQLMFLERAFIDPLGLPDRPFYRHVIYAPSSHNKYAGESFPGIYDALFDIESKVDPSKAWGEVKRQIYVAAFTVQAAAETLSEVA

Compound | IC50
N[C@@H](CCC(=O)O)C(=O)O [glutamic acid] | 870 µM
N[C@@H](Cn1oc(=O)[nH]c1=O)C(=O)O [quisqualate] | 16.7 µM
